The nature of data set [1]: Drug loading attainable in 10% P123 (summary). The data set is classed as physicochemical. As for the experimental part:
In the Example section below, formulation of the following A-ring compounds: BPD-MA, A-EA6, A-B3; B-ring compounds; B-EA6, and B-B3; and other photosensitizers such as dihydroxychlorins and pyropheophorbides, with P123 illustrate the versatility of this particular block copolymer. This includes A-ring compounds such as BPD-MA where block copolymers could be used to formulate an alternative product to a concentration as high as 4 mg/ml in 10% P123, and also A-EA6 and A-B3, all of which formulate very readily. B-ring compounds have lower drug loading characteristics, but concentrations of approximately 1.8 mg/ml are typical for B-B3, and lower for B-EA6. A wide range of other compounds e.g. pyropheophorbides and various dihydroxychlorins also formulate with ease to give final formulations at 2 mg/ml in 10% P123 in non-optimized systems. Therefore both the drug loading, and stability could be improved further by adjustments to composition, pH, and/or methodology of formulation.

The test system of data set [2] is L1210 cells. As to the kind of experiment: In vitro cellular uptake of photosensitizer formulations. Conditions: 3 μg/ml, DMEM 10% FBS, B-B3 in P123 copolymer, BPD-MA liposomal. The data set is classed as cell-based. As for the experimental part: The protocol for setting up the cell cultures and conditions for the cellular assay essentially followed Richter et al. (Proc. SPIE, 2078: 293-304, September 1993). L1210 cells in DMEM and 10% FBS (single experiment, 3 sets) were incubated with the formulations at a concentration of 3 μg/ml and examined for uptake in the cells over time. Cells were recovered by centrifugation, the pellet briefly rinsed, and the cells lysed by freeze thawing in the presence of 2% Triton X-100®. An equal volume of methanol was added and fluorescence was read at 694 nm (λex 440 nm).

For data set [3], the system named is M1 rhabdomyosarcoma tumor. As to the kind of experiment: PDT tumor recurrence in tumor mouse model. It is filed as in vivo, DBA/2 mouse. Here is the method: Photosensitizer formulations were prepared in 10% w/v Pluronics as described in Example 4. BPD-MA was formulated in F127. B-ring compounds B-EA6 and B-B3, were prepared in P123 due to insufficient drug loading in F127. Liposomal BPD-MA formulation was Verteporfin™ and B-ring compounds were formulated in the same lipid composition. Where DMSO/plasma preparations were made, the DMSO dissolved drug was added directly to mouse plasma and the drug association with different plasma components was observed.
In these experiments the tumor model used was the DBA/2 mouse (males) inoculated intradermally with M1 rhabdomyosarcoma tumor cells (M1, ATCC. When tumors reached a diameter of 4-6 mm, the mice (n=10, unless other wise stated) were treated with photodynamic therapy (PDT). PDT involved intravenous injection of the formulated drug in 0.2 mL volume of PBS. This was followed by exposure of the tumor region to laser light (Argon pumped dye laser (5W), 690 nm, 50J/cm2) 15 min later. Animals were then monitored for tumor recurrence over a 20 day period post treatment.

For data set [4], the system named is L1210 cells. As to the kind of experiment: In vitro phototoxicity (MTT assay after light exposure). It is filed as cell-based. Here is the method:
Exposure to drugs was carried out in the presence and absence of fetal calf serum (FCS) as a model to study transfer of drug to cells in vivo. […] A suspension of L1210 cells was prepared and exposed to various drug formulations (drug concentrations ranging from 0-50 ng/ml) either in the absence or presence of 10% fetal calf serum (FCS). One hour later, the drug was removed by pelleting the cells by centrifugation. The pellet was briefly washed with 1 ml DME and resuspended in 5% FCS/DME. 100 μl of the cell suspension was aliquoted into 6 wells of a 96 well plate, and the plate exposed to light at 10 J/cm^2. Viability was determined 24 h post exposure using the MTT assay (Mosmann, J. Immunol. Meth. 65:55-63, 1983).

The subject of data set [5] is arthritis in the MRL/1pr mouse. In words: Transcutaneous PDT of arthritis, ankle width. It is filed as in vivo. Conditions: 0.5 mg/kg i.v. Here is the method: Arthritis in the MRL/1pr mouse strain was enhanced by giving 2 intradermal injections (thoracic and inguinal sites) with 0.05 ml of complete Freunds adjuvant containing 10 mg/ml heat-inactivated M. tuberculosis. PDT was given on days 0, 10 and 20 following CFA treatment. PDT was carnied out as follows; 3 groups of MRL/1pr mice were injected intravenously with B-B3 at 0.5 mg/kg (copolymer or liposomal formulations), after which they were protected from light. The third group was injected with copolymer alone at an equivalent copolymer concentration to that found in the formulation. An hour later, they were exposed to light at 80 J/cm^2 for […] (8 mW/cm^2).
Ankle width measurements were taken every 5 days prior to PDT treatment.

Where [6] appears, read: Liposomal, 1.0 mg/kg i.v., 690 nm 50J/cm2 15 min later, Day 7.
Where [7] appears, read: Carrier Liposomal, −FCS, 1 h drug, light 10 J/cm^2, MTT 24 h.
Setting [8] is: liposomal formulation, light 80 J/cm^2.

Marks after values point to notes of the source that are not given here. Where only a bound is given, the exact number is not on record here.

Consider `C=Cc1c(C)c2cc3nc(cc4[nH]c(cc5nc(cc1[nH]2)C1(C)C5=CC=C(C(=O)O)C1C(=O)OC)c(C)c4CCC(=O)OC)C(CCC(=O)OC)=C3C` (stereo not shown) [B-B3], for which the Formulated drug concentration result in data set [1] is “approximately 1.8 mg/ml”. In addition, the “Incubation time to 50% uptake level” value in data set [2] is listed as “close to ‘zero’ incubation time”. The “Incubation time to peak / saturation of uptake” value in data set [2] is given as “around 20 min”. Further, the “Percent (%) Mice Tumor Free” value in data set [3] (setting [6]) is listed as 0^2%; in data set [3] (Pluronic P123, 1.0 mg/kg, Day 7), 100%; in data set [3] (Pluronic P123, 1.0 mg/kg, Day 14) it was 80%; in data set [3] (Pluronic P123, 1.0 mg/kg, Day 20), 60%; in data set [3] (Pluronic P123, 1.2 mg/kg, Day 7, n = 3) it was 100^3%; in data set [3] (Pluronic P123, 1.2 mg/kg, Day 14, n = 3), 67^3%. Moreover, the “Percent (%) Mice Tumor Free” value is given as 67^3% in data set [3] (Pluronic P123, 1.2 mg/kg, Day 20, n = 3); 100% in data set [3] (Pluronic P123, 1.25 mg/kg, Day 7); 100% in data set [3] (Pluronic P123, 1.25 mg/kg, Day 14); 80% in data set [3] (Pluronic P123, 1.25 mg/kg, Day 20). In addition, the “PDT efficacy in tumor model” value in data set [3] (plasma /DMSO preparation) was “completely ineffective”. The LD50 in data set [4] (Carrier Copolymer (P123), +FCS (10%)) was 16.6* ng/ml; in data set [4] (Carrier Copolymer (P123), −FCS) it was 0.68* ng/ml; in data set [4] (Carrier DMSO, +FCS (10%)), 37.0 ng/mL; in data set [4] (Carrier DMSO, −FCS) it was 7.2 ng/mL; in data set [4] (Carrier Liposomal, +FCS (10%)) it was 30.0 ng/mL; in data set [4] (setting [7]) it was 3.0 ng/mL. For the same compound, the “Control of inflammation (increase in ankle swelling)” value in data set [5] (copolymer formulation, light 80 J/cm^2 1 h later, PDT days 0, 10, 20) is reported as “highly effective in controlling the inflammation”. Moreover, in data set [5] (setting [8]), the “Control of inflammation (ankle swelling), after day 25” value is given as “exacerbation of the inflammatory condition”. In data set [5] (setting [8]), the “Control of inflammation (ankle swelling), earlier part of the study” value is listed as “better suppression of the inflammation compared to the controls”.

Take `C=Cc1c(C)c2cc3nc(cc4[nH]c(cc5nc(cc1[nH]2)C(C)=C5CCC(=O)O)c(CCC(=O)OC)c4C)[C@@]1(C)C3=CC=C(C(=O)OC)[C@H]1C(=O)OC` [BPD-MA, benzoporphyrin derivative mono-acid-ring A, reference compound]: in data set [1], the Formulated drug concentration is at most 4 mg/mL. Moreover, the “Incubation time to 50% uptake level” value in data set [2] is reported as “approximately 5 min”. Besides, the “Incubation time to peak / saturation of uptake” value in data set [2] was found to be 30 min. Moreover, the “Percent (%) Mice Tumor Free” value came out at 100% in data set [3] (setting [6]); 100% in data set [3] (Liposomal, 1.0 mg/kg, Day 14); 30% in data set [3] (Liposomal, 1.0 mg/kg, Day 20); 100% in data set [3] (Pluronic F127, 1.0 mg/kg, Day 7); 60% in data set [3] (Pluronic F127, 1.0 mg/kg, Day 14); 60% in data set [3] (Pluronic F127, 1.0 mg/kg, Day 20). Moreover, the LD50 was found to be 38.0 ng/mL in data set [4] (Carrier Liposomal, +FCS (10%)) and 4.0 ng/mL in data set [4] (setting [7]).
